Experimental data from patent US20230248740A1, “Pharmaceutical Composition Comprising Compound Capable of Penetrating Blood-Brain Barrier as Effective Ingredient for Preventing or Treating Brain Cancer” (DAEGU-GYEONGBUK MEDICAL INNOVATION FOUNDATION, priority 2017, published 2023).

What was measured:
LRRK2 protein [1] = molecular target: T1, LRRK2 protein (Homo sapiens, UniProt Q5S007); assay: LRRK2 protein phosphorylation inhibitory activity, Western blotting, 448T cells; type: cell-based, human (brain-tumor-patient-derived cell line); details: after 1 day
T1 construct: endogenous in cells; host or cells: NCC01 (brain-tumor-patient-derived cell line)
Description: An experiment was conducted in order to evaluate the in-vitro drug efficacy of the compound of Comparative Example, known as an LRRK2 protein inhibitor.

LRRK2 protein [2] = molecular target: T1, LRRK2 protein; assay: LRRK2 protein phosphorylation inhibitory activity, Western blotting, NCC01 cells; type: cell-based, human (brain-tumor-patient-derived cell line); details: after 1 day
Description: In order to evaluate drug efficacy in vitro, a Western blotting experiment was performed using brain-tumor-patient-derived cell line NCC01 cells.
(§1) Here, the group not treated with the compound of Example was used as a vehicle.
as §1
Here, the group not treated with the compound of Example was used as a vehicle. […]
More specifically, 7.5x10^5 to 1.0x10^6 cells were treated with the compound of Comparative Example at a concentration of 0.1 or 1.0 µM, and after 1 day, samples were collected and evaluated for LRRK2 protein phosphorylation inhibitory activity through Western blotting. Here, the group not treated with the compound of Example was used as a vehicle.

NCC01 cells [3] = assay: Apoptosis induction activity, FACS, NCC01 cells; type: cell-based, human (brain-tumor-patient-derived cell line); details: 100 nM, after 1 day
Description: In order to evaluate whether apoptosis of brain tumor cells is induced by inhibiting LRRK2 protein phosphorylation, an experiment was conducted using FACS (fluorescence-activated cell sorting).
More specifically, 7.5x10^5 to 1.0x10^6 NCC01 cells were treated with the compound of each of Examples 11, 12 and 21 at a concentration of 100 nM, and after 1 day, samples were collected and subjected to FACS, thus assaying the apoptosis induction activity. The group not treated with the compound of Example was used as a control.

U87MG cells = assay: Therapeutic effect on brain tumor upon co-administration with Avastin, U87MG orthotopic mouse model; type: in vivo, Balb/c-nude mice; details: Example 12 orally 30 mg/kg in combination with Avastin intraperitoneally 10 mg/kg, vs Avastin
Description: More specifically, orthotopic mouse models were manufactured using 5-week-old Balb/c-nude mice. U87MG cells (ATCC, USA), a brain tumor cell line, were injected 3.5 mm deep at a position 2.2 mm to the left of and 0.5 mm behind the bregma using a stereotaxic device. 3 days after injection of the cells, mice were divided into three groups of 5 mice per group (a control (vehicle), a group administered with Avastin, and a group administered with the compound of Example 12 and Avastin), and the drug was administered thereto. The compound of Example 12 was orally administered at a dose of 30 mg/kg and Avastin was injected intraperitoneally at a dose of 10 mg/kg.

[4] = tested on: TRAP1 (TNF receptor associated protein 1); assay: TRAP1 expression, Western blotting, brain tumor stem cell line NCC01; type: cell-based, human (brain-tumor-patient-derived cell line); details: NCC01 cells, 100 or 1,000 nM, after 1 day
Description: Specifically, brain tumor stem cell line NCC01 cells were added with the compound of Example 12 at a concentration of 100 or 1,000 nM, and after 1 day, changes in the expression of TRAP1 were measured through Western blotting. Here, the group not treated with the compound of Example was used as a vehicle.

NCC01 cells [5] = assay: Growth inhibitory activity on brain tumor cells in animal model, NCC01 cells injected into the brain; type: in vivo, Balb/c-nude mouse; details: orally
Description: (§2) More specifically, 1.0x10^4 NCC01 cells, a brain-tumor-patient-derived cell line, were injected into the brain of a Balb/c-nude mouse model, and after 3 days, the compound of Example 12 was orally administered at a dose of 10 mg/kg or 60 mg/kg. After administration of the compound, the survival rate of the mice based on the survival period was determined, and the size of the tumors generated in the mice was measured using MRI. Here, the group not treated with the compound of Example was used as a vehicle.

NESTIN protein = assay: Expression of NESTIN protein (cancer stem cell marker), Western blotting, NCC01 cells; type: cell-based, human (brain-tumor-patient-derived cell line); details: 50 to 2,000 nM, after 1 day
Description: More specifically, 1.0x10^6 NCC01 cells were treated with the compound of Example 12 at concentrations of 50, 100, 500, 1,000 and 2,000 nM. After 1 day, samples were collected and the expression of NESTIN protein, which is a cancer stem cell marker involved in the intracellular signaling pathway, was measured through Western blotting. Here, the group not treated with the compound of Example was used as a vehicle.

LRRK2 protein [6] = molecular target: T1, LRRK2 protein; assay: LRRK2 protein phosphorylation inhibitory activity, Western blotting, NCC01 cells; type: cell-based, human (brain-tumor-patient-derived cell line); details: for LRRK2 protein phosphorylation: after 1 day
448T cells = assay: Growth inhibitory activity on brain tumor cells in animal model, 448T cells injected into the brain; type: in vivo, Balb/c-nude mouse; details: orally, 60 mg/kg
Description: as §2
Specifically, the experiment was conducted in the same manner under the same conditions as in Experimental Example 14, with the exception that 448T cells were used in lieu of NCC01 cells, and the compound of each of Examples 12, 20 and 21 was orally administered at a dose of 60 mg/kg.

NCC01 cells [7] = assay: Mitochondrial function, TMRE staining of activated mitochondria, NCC01 cells; type: cell-based, human (brain-tumor-patient-derived cell line); details: after 1 day
Description: Specifically, NCC01 cells were treated with the compound of Example 12 at 1 µM, and after 1 day, TMRE (tetramethylrhodamine ethylester) dye for staining activated mitochondria was added thereto to evaluate changes in mitochondrial function. Here, the group not treated with the compound of Example was used as a control.
Specifically, brain tumor stem cell line NCC01 cells were treated with the compound of Example 12 at a concentration of 0.1 or 1 µM, and after 1 day, the mitochondria were stained as described in Experimental Example 9 to assay changes in the function thereof. Here, the group not treated with the compound of Example was used as a vehicle.

NCC01 cells [8] = assay: Sphere size under hypoxic conditions with shRNA against the LRRK2 gene, NCC01 cells; type: cell-based, human (brain-tumor-patient-derived cell line); details: NCC01 cells exposed to hypoxic conditions
Description: (§3) Specifically, NCC01 and 528NS cells were exposed to hypoxic conditions and treated with two kinds of shRNA against the LRRK2 gene, after which changes in the size of spheres were measured. Here, a control was shRNA (shNT) against luciferase.

528NS cells = assay: Sphere size under hypoxic conditions with shRNA against the LRRK2 gene, 528NS cells; type: cell-based; details: 528NS cells exposed to hypoxic conditions
Description: as §3

[9] = 100 or 1,000 nM, compared to the vehicle

T1 sequence (Q5S007 whole entry): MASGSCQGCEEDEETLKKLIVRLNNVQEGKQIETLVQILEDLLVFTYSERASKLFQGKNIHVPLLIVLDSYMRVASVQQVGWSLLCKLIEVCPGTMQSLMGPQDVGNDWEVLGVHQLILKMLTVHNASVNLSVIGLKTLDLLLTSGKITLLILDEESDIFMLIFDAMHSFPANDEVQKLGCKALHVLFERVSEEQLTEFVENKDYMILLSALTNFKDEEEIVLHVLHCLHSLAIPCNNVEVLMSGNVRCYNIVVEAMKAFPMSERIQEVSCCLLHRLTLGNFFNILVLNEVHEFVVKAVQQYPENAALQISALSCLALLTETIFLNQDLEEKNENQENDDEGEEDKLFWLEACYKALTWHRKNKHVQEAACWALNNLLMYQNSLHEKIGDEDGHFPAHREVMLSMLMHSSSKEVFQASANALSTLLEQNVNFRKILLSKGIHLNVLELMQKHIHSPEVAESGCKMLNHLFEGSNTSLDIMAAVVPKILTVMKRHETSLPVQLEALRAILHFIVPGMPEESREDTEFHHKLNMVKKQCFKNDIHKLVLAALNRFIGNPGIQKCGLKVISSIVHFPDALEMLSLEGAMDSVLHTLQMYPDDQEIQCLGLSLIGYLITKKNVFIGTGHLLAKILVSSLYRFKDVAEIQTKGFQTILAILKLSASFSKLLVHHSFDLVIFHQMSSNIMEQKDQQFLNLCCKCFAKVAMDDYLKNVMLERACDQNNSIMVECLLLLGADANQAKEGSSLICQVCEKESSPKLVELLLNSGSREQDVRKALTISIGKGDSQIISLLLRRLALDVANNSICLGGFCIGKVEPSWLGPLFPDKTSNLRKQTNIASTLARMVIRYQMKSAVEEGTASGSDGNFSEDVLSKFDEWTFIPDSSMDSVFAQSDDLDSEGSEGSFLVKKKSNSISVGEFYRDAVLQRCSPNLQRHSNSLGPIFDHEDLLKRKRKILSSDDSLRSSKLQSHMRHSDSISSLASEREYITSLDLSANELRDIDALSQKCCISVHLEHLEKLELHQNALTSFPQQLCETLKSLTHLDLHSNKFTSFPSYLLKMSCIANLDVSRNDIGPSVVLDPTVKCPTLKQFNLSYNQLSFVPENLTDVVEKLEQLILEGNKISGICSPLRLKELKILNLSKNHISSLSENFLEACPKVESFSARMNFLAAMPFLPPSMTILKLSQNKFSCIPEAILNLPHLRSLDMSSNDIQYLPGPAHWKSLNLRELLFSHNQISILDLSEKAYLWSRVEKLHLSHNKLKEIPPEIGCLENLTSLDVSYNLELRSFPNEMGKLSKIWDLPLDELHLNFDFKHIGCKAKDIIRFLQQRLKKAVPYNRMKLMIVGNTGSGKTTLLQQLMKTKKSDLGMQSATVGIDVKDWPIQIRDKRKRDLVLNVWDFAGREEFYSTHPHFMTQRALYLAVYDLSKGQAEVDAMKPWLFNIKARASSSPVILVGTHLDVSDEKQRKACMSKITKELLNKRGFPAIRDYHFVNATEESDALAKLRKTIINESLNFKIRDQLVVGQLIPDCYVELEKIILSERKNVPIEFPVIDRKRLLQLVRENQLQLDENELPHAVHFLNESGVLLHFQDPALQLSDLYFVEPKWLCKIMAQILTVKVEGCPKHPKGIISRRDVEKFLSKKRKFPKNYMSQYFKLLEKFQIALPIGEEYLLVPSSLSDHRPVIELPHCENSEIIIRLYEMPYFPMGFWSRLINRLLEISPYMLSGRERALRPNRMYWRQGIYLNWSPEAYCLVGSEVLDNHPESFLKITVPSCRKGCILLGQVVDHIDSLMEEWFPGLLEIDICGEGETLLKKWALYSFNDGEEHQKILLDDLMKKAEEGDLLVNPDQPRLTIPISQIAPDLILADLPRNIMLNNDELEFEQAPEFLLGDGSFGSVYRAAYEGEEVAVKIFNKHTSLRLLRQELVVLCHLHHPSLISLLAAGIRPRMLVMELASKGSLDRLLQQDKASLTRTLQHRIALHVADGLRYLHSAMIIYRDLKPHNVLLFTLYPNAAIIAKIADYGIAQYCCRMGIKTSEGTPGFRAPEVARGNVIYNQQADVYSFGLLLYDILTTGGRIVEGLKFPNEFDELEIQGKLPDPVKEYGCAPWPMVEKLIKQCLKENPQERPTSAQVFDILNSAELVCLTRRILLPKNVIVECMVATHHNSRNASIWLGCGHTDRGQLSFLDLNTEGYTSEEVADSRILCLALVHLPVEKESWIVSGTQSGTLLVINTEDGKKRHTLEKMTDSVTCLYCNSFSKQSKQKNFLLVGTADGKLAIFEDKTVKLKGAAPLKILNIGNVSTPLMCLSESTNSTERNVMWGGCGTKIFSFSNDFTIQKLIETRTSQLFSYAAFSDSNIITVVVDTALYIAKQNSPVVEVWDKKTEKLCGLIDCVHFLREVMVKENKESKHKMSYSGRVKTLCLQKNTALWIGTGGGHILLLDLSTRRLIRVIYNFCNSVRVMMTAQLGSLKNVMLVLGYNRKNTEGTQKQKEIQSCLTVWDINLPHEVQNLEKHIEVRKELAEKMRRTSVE

## CNc1nc(Nc2cn(C(C)(C)C#N)nc2C)ncc1C(F)(F)F [Comparative Example, 2-Methyl-2-[3-Methyl-4-[[4-(Methylamino)-5-(Trifluoromethyl)Pyrimidin-2-yl]Amino]Pyrazol-1-yl]Propanenitrile, reference compound]
LRRK2 protein [1]; 0.1 or 1.0 µM, Examples stated by contrast ('unlike' = inhibited)
  LRRK2 protein phosphorylation: did not inhibit
LRRK2 protein [2]; 0.1 or 1.0 µM
  LRRK2 protein phosphorylation: did not inhibit

## COc1cc(C(=O)N2CCC(N3CCN(C)CC3)CC2)ccc1Nc1ncc2c(n1)N(C)c1ccccc1C(=O)N2C [Example 10, 2-[(2-Methoxy-4-[[4-(4-Methylpiperazin-1-yl)Piperidin-1-yl]Carbonyl]Phenyl)Amino]-5,11-Dimethyl-5,11-Dihydro-6H-Pyrimido[4,5-b][1,4]Benzodiazepin-6-One]
LRRK2 protein [1]; [9]
  LRRK2 protein phosphorylation: significantly inhibited
LRRK2 protein [2]; [9]
  LRRK2 protein phosphorylation: significantly inhibited
LRRK2 protein [2]; concentration of 100 nM
  phosphorylated LRRK2 protein: detected

## CCNc1nc(Nc2cc(F)c(C(=O)N3CCOCC3)cc2OC)ncc1C(F)(F)F [Example 11, (4-(4-(Ethylamino)-5-(Trifluoromethyl)Pyrimidin-2-Ylamino)-2-Fluoro-5-Methoxyphenyl) (Morpholino)Methanone]
NCC01 cells [3]
  apoptosis of NCC01 cells: induced
LRRK2 protein [1]; [9]
  LRRK2 protein phosphorylation: significantly inhibited
LRRK2 protein [2]; [9]
  LRRK2 protein phosphorylation: significantly inhibited

## CNc1nc(Nc2ccc(C(=O)N3CCOCC3)cc2OC)ncc1C(F)(F)F [Example 12, (3-Methoxy-4-(4-(Methylamino)-5-(Trifluoromethyl)Pyrimidin-2-Ylamino)Phenyl)(Morpholino)Methanone]
U87MG cells
  therapeutic effect of Avastin on brain tumors (survival): further significantly increased
NCC01 cells [3]
  apoptosis of NCC01 cells: induced
  apoptosis rate relative to the compounds of Examples 11 and 21: about 3 times
LRRK2 protein [1]; [9]
  LRRK2 protein phosphorylation: significantly inhibited
LRRK2 protein [1]; concentration of 50 nM
  LRRK2 protein phosphorylation: inhibited most
[4]
  expression of TRAP1: inhibited
NCC01 cells [5]; 10 mg/kg or 60 mg/kg
  tumor at the position to which the NCC01 cells were injected (MRI): no tumor was observed
NCC01 cells [5]; 10 mg/kg, vehicle 54 days
  average survival period of the mice: 71 days
NCC01 cells [5]; 60 mg/kg, vehicle average 54 days
  survival of all the mice: ≥ 100 days
NESTIN protein
  expression of NESTIN protein: reducing
LRRK2 protein [6]; NCC01 cells, 100 nM, starting 1 day after treatment, samples after 1, 4 and 8 days, reduction continued over time
  extent of LRRK2 protein phosphorylation over time: drastically reduced
LRRK2 protein [6]; NCC01 cells, 50, 100, 500, 1,000 and 2,000 nM, concentration-dependent
  LRRK2 protein phosphorylation: inhibited
LRRK2 protein [6]; NCC01 cells, concentrations of 50 and 100 nM
  LRRK2 protein phosphorylation: mostly inhibited
LRRK2 protein [2]; [9]
  LRRK2 protein phosphorylation: significantly inhibited
448T cells
  tumor at the position to which the 448T cells were injected: no tumor was observed
NCC01 cells [7]; 1 µM
  fragmentation of nuclei in the cells: occurred
NCC01 cells [7]; 1 µM, vs control
  degree of color development of the TMRE dye: decreased
NCC01 cells [7]; 0.1 or 1 µM, compared to the control
  activity of the mitochondria present in the brain tumor stem cells: inhibited

## C[C@@H]1CN(c2cc(-c3n[nH]c4ccc(OC5(C)CC5)cc34)ncn2)C[C@H](C)O1 [Example 20, (2S,6R)-2,6-Dimethyl-4-(6-(5-(1-Methylcyclopropoxy)-1H-Indazol-3-yl)Pyrimidin-4-yl)Morpholine]
448T cells
  tumor at the position to which the 448T cells were injected: no tumor was observed

## N#Cc1cccc(-c2c[nH]c3nccc(N4CCOCC4)c23)c1 [Example 21, 3-(4-Morpholino-1H-Pyrrolo[2,3-b]Pyridin-3-yl)Benzonitrile]
NCC01 cells [3]
  apoptosis of NCC01 cells: induced
LRRK2 protein [1]; [9]
  LRRK2 protein phosphorylation: significantly inhibited
LRRK2 protein [2]; [9]
  LRRK2 protein phosphorylation: significantly inhibited
448T cells
  tumor at the position to which the 448T cells were injected: no tumor was observed

## Cn1cc(-c2c[nH]c3ncnc(N4CCOCC4)c23)cc1C#N [Example 22, 1-Methyl-4-(4-Morpholino-7H-Pyrrolo[2,3-d]Pyrimidin-5-yl)-1H-Pyrrole-2-Carbonitrile]
LRRK2 protein [2]; [9]
  LRRK2 protein phosphorylation: significantly inhibited

## LRRK2 shRNA-1: shRNA against the LRRK2 gene, SEQ ID NO: 33 (CCGGCCACAAATTCAACGGAAAGAACTCGAGTTCTTTCCGTTGAATTTGTGGTTTTT)
NCC01 cells [8]
  sphere size: suppressed
528NS cells
  sphere size: suppressed

## LRRK2 shRNA-2: shRNA against the LRRK2 gene, SEQ ID NO: 34 (CCGGCCCAAATTGGTGGAACTCTTACTCGAGTAAGAGTTCCACCAATTTGGGTTTTT)
NCC01 cells [8]
  sphere size: suppressed
528NS cells
  sphere size: suppressed
